Reference: patent publication US20110044969A1, “Antimicrobial Agents for the Treatment of Campylobacter Species in the Crop of a Bird” (NOFIMA MAT AS, priority 2008, published 2011)

Tested on: C. jejuni strain 484, strain 523 and strain 534
Settings: pH 6.0 and 6.5; acid 0.1, 0.01, 0.001, 0.0001%; 48 hours at 42° C. microaerophilic; growth by spectrophotometer; all three strains
Experimental: Three C. jejuni strains were compared in vitro for sensitivity for benzoic acid and sorbic acid at two different pH values. These strains were C. jejuni strain 484 (from poultry leg), C. jejuni strain 523 (from poultry faeces), and C. jejuni strain 534 (from poultry faeces). Different combinations of pH (6.0 and 6.5) and concentrations of the acids (0.1, 0.01, 0.001, and 0.0001%) were tested in Mueller-Hinton broth (MH) with supplement for Campylobacter (SR232E; Oxoid Ltd., Basingstoke, UK). The strains were incubated in microaerophilic atmosphere for 48 hours at 42° C., and growth was measured by spectrophotometer.
Three C. jejuni strains were tested for in vitro growth at different combinations of pH (6.0 and 6.5) and concentrations of sorbic- and benzoic acid (0.1, 0.01, 0.001, and 0.0001%).

C/C=C/C=C/C(=O)O [sorbic acid]
in vitro growth reduction of C. jejuni: highest growth reduction
